Assays:
Experiment in all cases: relative viability (nuclei count vs DMSO), 5 days (fraction); higher = more cells survive
[1] = compound: COc1cc(Nc2ncc(F)c(Nc3ccc4c(n3)NC(=O)C(C)(C)O4)n2)cc(OC)c1OC [R406] + COc1cccc2cc(-c3nc([C@H]4CC[C@H](C(=O)O)CC4)n4ncnc(N)c34)[nH]c12 [OSI-027] (partner 0.5 µM)
Procedure, shortened: (§1)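 Dosing by pin tool came one day after lung cancer cell lines were seeded in 1536-well plates, using either one drug or a fixed anchor-drug dose plus five library-drug doses (not always all listed) in √10 steps. After 5 days, nuclei were counted on 4× images. Relative viability is treated-well nuclei count divided by vehicle-well nuclei count, and values are medians of duplicate plates.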

[2] = compound: COc1cc(Nc2ncc(F)c(Nc3ccc4c(n3)NC(=O)C(C)(C)O4)n2)cc(OC)c1OC [R406] + C[C@]1(O)C[C@@H](c2nc(-c3ccc4ccc(-c5ccccc5)nc4c3)c3c(N)nccn32)C1 [Linsitinib] (partner 1 µM)
Procedure, shortened: as §1

[3] = compound: COc1cc(Nc2ncc(F)c(Nc3ccc4c(n3)NC(=O)C(C)(C)O4)n2)cc(OC)c1OC [R406] + N=C(N)NC(=N)NCCc1ccccc1 [Phenformin] (partner 250 µM)
Procedure, shortened: as §1

[4] = compound: O=C(/C=C/c1cccnc1)NCCCCC1CCN(C(=O)c2ccccc2)CC1 [Daporinad] + CCNC(=O)c1noc(-c2cc(C(C)C)c(O)cc2O)c1-c1ccc(CN2CCOCC2)cc1 [Luminespib] (partner 0.01 µM)
Procedure, shortened: as §1

Row | Cell Line | relative viability ([1]; first compound 0.08 µM) | relative viability ([1]; first compound 0.253 µM) | relative viability ([1]; first compound 0.8 µM) | relative viability ([1]; first compound 2.53 µM) | relative viability ([1]; first compound 8 µM) | relative viability ([2]; first compound 0.08 µM) | relative viability ([2]; first compound 0.253 µM) | relative viability ([2]; first compound 0.8 µM) | relative viability ([2]; first compound 2.53 µM) | relative viability ([2]; first compound 8 µM) | relative viability ([3]; first compound 0.08 µM) | relative viability ([3]; first compound 0.253 µM) | relative viability ([3]; first compound 0.8 µM) | relative viability ([3]; first compound 2.53 µM) | relative viability ([3]; first compound 8 µM) | relative viability ([4]; first compound 0.0005 µM) | relative viability ([4]; first compound 0.001581 µM) | relative viability ([4]; first compound 0.005 µM) | relative viability ([4]; first compound 0.01581 µM)
1 | BEN | 0.291 | 0.299 | 0.286 | 0.298 | 0.281 | 0.946 | 1.22 | 0.981 | 0.877 | 0.708 | 0.267 | 0.283 | 0.256 | 0.26 | 0.249 | 0.356 | 0.559 | 0.456 | 0.437
2 | NCI-H1666 | 0.829 | 0.851 | 0.88 | 0.829 | 0.642 | 0.837 | 0.792 | 0.872 | 0.735 | 0.449 | 0.542 | 0.576 | 0.59 | 0.616 | 0.476 | 1.01 | 0.985 | 1.07 | 1.03
3 | LC-2-ad | 0.872 | 0.878 | 0.838 | 0.504 | 0.34 | 0.828 | 0.832 | 0.729 | 0.385 | 0.158 | 0.592 | 0.561 | 0.579 | 0.384 | 0.25 | 0.99 | 1.11 | 1.19 | 0.795
4 | SW 1573 | 0.603 | 0.783 | 0.869 | 0.493 | 0.224 | 0.926 | 0.864 | 0.812 | 0.664 | 0.627 | 0.371 | 0.43 | 0.469 | 0.263 | 0.151 | 0.207 | 0.737 | 0.207 | 0.296
5 | COR-L 105 | 0.659 | 0.612 | 0.752 | 0.405 | 0.235 | 0.968 | 1.13 | 0.879 | 0.705 | 0.736 | 0.495 | 0.569 | 0.602 | 0.366 | 0.224 | 0.807 | 0.805 | 0.82 | 0.738
6 | NCI-H1975 | 0.699 | 0.678 | 0.854 | 0.252 | 0.15 | 0.875 | 1.06 | 0.981 | 0.467 | 0.186 | 0.386 | 0.463 | 0.421 | 0.224 | 0.127 | 0.206 | 0.262 | 0.183 | 0.3
7 | NCI-H1993 | 0.546 | 0.521 | 0.55 | 0.515 | 0.552 | 0.762 | 0.656 | 0.709 | 0.675 | 0.703 | 0.503 | 0.474 | 0.525 | 0.505 | 0.569 | 0.795 | 0.797 | 0.787 | 0.891
8 | SK-LU-1 | 0.312 | 0.337 | 0.424 | 0.153 | 0.0841 | 1.03 | 1.07 | 1.07 | 0.595 | 0.292 | 0.597 | 0.608 | 0.628 | 0.175 | 0.0854 | 0.193 | 0.204 | 0.227 | 0.225
9 | NCI-H23 | 0.588 | 0.647 | 0.602 |  | 0.269 | 0.494 | 0.7 | 0.7 | 0.56 | 0.459 | 0.693 | 0.821 | 0.775 |  | 0.355 | 0.197 | 0.231 | 0.203 | 0.215
10 | EMC-BAC-2 | 0.373 | 0.416 | 0.407 | 0.232 | 0.203 | 0.817 | 0.87 | 0.822 | 0.707 | 0.53 | 0.516 | 0.587 | 0.616 | 0.388 | 0.198 | 1.19 | 1.22 | 1.25 | 0.331
11 | NCI-H2405 | 0.658 | 0.686 | 0.608 | 0.556 | 0.283 | 0.916 | 0.89 | 1.01 | 0.731 | 0.221 | 0.399 | 0.427 | 0.402 | 0.284 | 0.195 | 0.853 | 0.884 | 1.01 | 0.723
12 | NCI-H1944 | 0.398 | 0.41 | 0.419 | 0.304 | 0.242 | 1.21 | 1.24 | 1.22 | 0.879 | 0.741 | 0.207 | 0.227 | 0.218 | 0.15 | 0.16 | 0.85 | 0.802 | 0.829 | 0.729
13 | NCI-H358 | 0.752 | 0.678 | 0.893 | 0.208 | 0.118 | 0.889 | 0.752 | 0.723 | 0.418 | 0.336 | 0.298 | 0.3 | 0.309 | 0.151 | 0.115 | 0.27 | 0.305 | 0.599 | 0.359
14 | EPLC-272H | 0.275 | 0.291 | 0.253 | 0.203 | 0.229 | 1.1 | 1.18 | 1.15 | 0.717 | 0.564 | 0.278 | 0.371 | 0.333 | 0.25 | 0.207 | 0.237 | 0.433 | 0.388 | 0.393
15 | NCI-H1915 | 0.619 | 0.708 | 0.581 |  | 0.4 | 1.09 | 1.12 | 1.09 | 1.09 | 0.98 | 0.359 | 0.388 | 0.404 |  | 0.278 | 0.893 | 0.703 | 0.786 | 0.824
16 | NCI-H647 | 0.657 | 0.504 | 0.878 | 0.298 | 0.15 | 0.813 | 1.21 | 1.15 | 0.763 | 0.159 | 0.423 | 0.561 | 0.78 | 0.432 | 0.12 | 0.183 | 0.173 | 0.239 | 0.182
17 | NCI-H322M | 0.524 | 0.514 | 0.602 | 0.348 | 0.347 | 0.879 | 0.814 | 0.983 | 0.523 | 0.472 | 0.709 | 0.721 | 0.853 | 0.582 | 0.275 | 0.997 | 0.97 | 0.853 | 0.608

Reference: the supplement of paper PMC10307832
